Drawing on patent US10196369B2, “Spirocyclic EBI2 modulators” (Sanford Burnham Prebys Medical Discovery Institute, priority 2013, dated 2019), this text covers IC50 for 30 molecules.

Some results are limits rather than exact numbers.

The assay addresses EBI2 (Homo sapiens, UniProt P32249). Description: Cell-based luminescent assay of EBI2 modulation (7a,25-OHC stimulated). The settings on record: 7a,25-OHC final assay concentration 80 nM, 60 minute incubation. How it is done: To assess EBI2 modulation, the compounds described herein were assayed in the following cell-based luminescent assay:
1) Plated 600 cells/well in 4 μL of assay media into columns 1-48 of a 1536-well assay plate, using a liquid dispenser.
2) Centrifuged plates at 1000 rpm for 1 minute and covered with lids.
3) Incubated overnight at 37° C., 100% relative humidity, 5% CO2.
1) Centrifuged compound plates containing compounds described herein at 500 rpm for 1 minute.
2) Added compounds into assay plate col 5-48 to final concentration 4-5 uM. Added matching amount of DMSO to positive and negative control wells in columns 1-4.
3) Dispensed 2 uL/well of assay media to columns 1-2 for the positive control wells.
4) Added 2 uL/well of 400 nM 7a,25-OHC (final assay concentration=80 nM) in assay media to columns 3-48 for the negative control and test compound wells.
5) Centrifuged plates at 1000 rpm for 1 minute and re-lid plates.
6) Incubated plates at 37° C., 100% relative humidity, 5% CO2 for 60 minutes.
7) Following 60 minute incubation, delivered 2.5 uL of Detection Reagent solution to each assay plate (Columns 1-48) using a liquid handler.
8) Centrifuged plates at 2000 rpm for 2 minutes and re-lid plates.
9) Incubated plates for 60 minutes at 25 degrees in the dark.
10) Read plates using the Viewlux, Envision or other suitable plate reader using a luminescence detection.
The experimental values were normalized by the difference between values from neutral and stimulator control wells in each plate. Then normalized data was corrected to remove systematic plate patterns due to artifacts such as dispensing tip issues etc.

EBI2, sequence (P32249 whole entry): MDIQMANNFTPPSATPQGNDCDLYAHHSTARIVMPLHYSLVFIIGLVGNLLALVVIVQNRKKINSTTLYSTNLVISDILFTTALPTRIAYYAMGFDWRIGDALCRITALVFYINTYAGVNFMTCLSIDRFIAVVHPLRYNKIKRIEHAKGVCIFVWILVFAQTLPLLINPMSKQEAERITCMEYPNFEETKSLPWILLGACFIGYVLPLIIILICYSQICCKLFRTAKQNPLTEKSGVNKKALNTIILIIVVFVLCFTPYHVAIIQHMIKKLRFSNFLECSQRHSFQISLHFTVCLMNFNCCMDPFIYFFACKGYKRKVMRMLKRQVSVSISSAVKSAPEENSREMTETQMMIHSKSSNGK

The molecule `O=C(/C=C/c1ccc(Br)cc1)N1CC2(CCN(C(=O)c3ccc(C(F)(F)F)cc3)CC2)C1` [Compound C21, (2E)-3-(4-bromophenyl)-1-(7-{[4-(trifluoromethyl)phenyl]carbonyl}-2,7-diazaspiro[3.5]non-2-yl)prop-2-en-1-one] registered a half-inhibitory concentration (IC50) of less than 0.1 µM.
Under `O=C(c1ccc(-c2nnn[nH]2)cc1)N1CCC2(CC1)CN(C(=O)c1cc3cc(Cl)ccc3[nH]1)C2` [Compound C42, 5-chloroindol-2-yl 7-[(4-(1H-1,2,3,4-tetraazol-5-yl)phenyl)carbonyl]-2,7-diazaspiro[3.5]non-2-yl ketone] stands 0.5 to 5 µM; under `O=C(c1ccc(Cl)cc1)N1CCC2(CC1)CN(C(=O)c1cc3ccc(Cl)cc3[nH]1)C2` [Compound C56, 6-chloroindol-2-yl 7-[(4-chlorophenyl)carbonyl]-2,7-diazaspiro[3.5]non-2-yl ketone], 0.5 to 5 µM.
For `O=C(c1cc2cc(Cl)ccc2[nH]1)N1CCC2(CC1)CN(Cc1ccc(C(F)(F)F)c(F)c1)C2` [Compound C14, 5-chloroindol-2-yl 2-{[3-fluoro-4-(trifluoromethyl)phenyl]methyl}-2,7-diazaspiro[3.5]non-7-yl ketone] the value was 0.1 to 0.5 µM.
For `O=C(c1ccc(C(F)(F)F)c(F)c1)N1CCC2(CC1)CCN(C(=O)c1cc3cc(Cl)ccc3[nH]1)CC2` [Compound C100, 5-chloroindol-2-yl 9-{[3-fluoro-4-(trifluoromethyl)phenyl]carbonyl}-3,9-diazaspiro[5.5]undec-3-yl ketone] the value was less than 0.1 µM; for `O=C(C#Cc1ccc(F)cc1)N1CCC2(CC1)CN(C(=O)c1ccc(F)cc1)C2` [Compound C86, 3-(4-fluorophenyl)-1-{2-[(4-fluorophenyl)carbonyl]-2,7-diazaspiro[3.5]non-7-yl}prop-2-yn-1-one], 0.1 to 0.5 µM; for `COc1ccc(CN2CC3(CCN(C(=O)C#Cc4ccc(Br)cc4)CC3)C2)cc1` [Compound C75, 3-(4-bromophenyl)-1-{2-[(4-methoxyphenyl)methyl]-2,7-diazaspiro[3.5]non-7-yl}prop-2-yn-1-one], 0.1 to 0.5 µM.
Turning to `O=C(C#Cc1ccc(Br)cc1)N1CCC2(CC1)CN(Cc1ccc(F)cc1)C2` [Compound C68, 3-(4-bromophenyl)-1-{2-[(4-fluorophenyl)methyl]-2,7-diazaspiro[3.5]non-7-yl}prop-2-yn-1-one], the IC50 is less than 0.1 µM.
Under `O=C(C#Cc1ccc(Cl)cc1)N1CCC2(CC1)CN(C(=O)c1ccc(C(F)(F)F)cc1)C2` [Compound C79, 3-(4-chlorophenyl)-1-(2-{[4-(trifluoromethyl)phenyl]carbonyl}-2,7-diazaspiro[3.5]non-7-yl)prop-2-yn-1-one] stands less than 0.1 µM.
Under `O=C(C#Cc1ccc(Cl)cc1)N1CC2(CCN(Cc3ccc(C(F)(F)F)cc3)CC2)C1` [Compound C83, 3-(4-chlorophenyl)-1-(7-{[4-(trifluoromethyl)phenyl]methyl}-2,7-diazaspiro[3.5]non-2-yl)prop-2-yn-1-one] stands 0.5 to 5 µM.
For `O=C(C#Cc1ccc(F)cc1)N1CC2(CCN(C(=O)c3ccc(C(F)(F)F)cc3)CC2)C1` [Compound C96, 3-(4-fluorophenyl)-1-(7-{[4-(trifluoromethyl)phenyl]carbonyl}-2,7-diazaspiro[3.5]non-2-yl)prop-2-yn-1-one] the value was less than 0.1 µM; for `O=C(/C=C/c1ccc(Cl)c(Cl)c1)N1CC2(CCN(C(=O)c3ccc(-c4nnn[nH]4)cc3)CC2)C1` [Compound C31, (2E)-3-(3,4-dichlorophenyl)-1-{7-[(4-(1H-1,2,3,4-tetraazol-5-yl)phenyl)carbonyl]-2,7-diazaspiro[3.5]non-2-yl}prop-2-en-1-one], 0.5 to 5 µM; for `O=C(C#Cc1ccc(Br)cc1)N1CCC2(CC1)CN(C(=O)c1ccc(Cl)cc1)C2` [Compound C70, 3-(4-bromophenyl)-1-{2-[(4-chlorophenyl)carbonyl]-2,7-diazaspiro[3.5]non-7-yl}prop-2-yn-1-one], 0.1 to 0.5 µM.
Turning to `O=C(/C=C/c1ccc(Br)cc1)N1CCC2(CC1)CN(C(=O)c1ccc(F)cc1C(F)(F)F)C2` [Compound C52, (2E)-3-(4-bromophenyl)-1-(2-{[4-fluoro-2-(trifluoromethyl)phenyl]carbonyl}-2,7-diazaspiro[3.5]non-7-yl)prop-2-en-1-one], the IC50 is less than 0.1 µM.
Under `O=C(C#Cc1ccc(Br)cc1)N1CCC2(CC1)CN(C(=O)c1ccc(F)cc1)C2` [Compound C67, 3-(4-bromophenyl)-1-{2-[(4-fluorophenyl)carbonyl]-2,7-diazaspiro[3.5]non-7-yl}prop-2-yn-1-one] stands 0.5 to 5 µM.
Under `O=C(C#Cc1ccc(Br)cc1)N1CC2(CCN(C(=O)c3ccc(C(F)(F)F)cc3)CC2)C1` [Compound C65, 3-(4-bromophenyl)-1-(7-{[4-(trifluoromethyl)phenyl]carbonyl}-2,7-diazaspiro[3.5]non-2-yl)prop-2-yn-1-one] stands 0.1 to 0.5 µM; under `O=C(C#Cc1ccc(Cl)cc1)N1CCC2(CC1)CN(C(=O)c1ccc(F)cc1)C2` [Compound C77, 3-(4-chlorophenyl)-1-{2-[(4-fluorophenyl)carbonyl]-2,7-diazaspiro[3.5]non-7-yl}prop-2-yn-1-one], less than 0.1 µM; under `O=C(C#Cc1ccc(Cl)cc1)N1CCC2(CC1)CN(Cc1ccc(Cl)cc1)C2` [Compound C82, 3-(4-chlorophenyl)-1-{2-[(4-chlorophenyl)methyl]-2,7-diazaspiro[3.5]non-7-yl}prop-2-yn-1-one], less than 0.1 µM.
For `O=C(C#Cc1ccc(Cl)cc1)N1CC2(CCN(Cc3ccc(Cl)cc3)CC2)C1` [Compound C85, 3-(4-chlorophenyl)-1-{7-[(4-chlorophenyl)methyl]-2,7-diazaspiro[3.5]non-2-yl}prop-2-yn-1-one] the value was 0.1 to 0.5 µM; for `O=C(c1cc2ccc(Br)cc2[nH]1)N1CC2(CCN(C(=O)c3ccc(F)cc3C(F)(F)F)CC2)C1` [Compound C61, 6-bromoindol-2-yl 7-{[4-fluoro-2-(trifluoromethyl)phenyl]carbonyl}-2,7-diazaspiro[3.5]non-2-yl ketone], 0.1 to 0.5 µM.
For the molecule `O=C(/C=C/c1ccc(Br)cc1)N1CC2(CCN(C(=O)c3ccc(F)cc3C(F)(F)F)CC2)C1` [Compound C45, (2E)-3-(4-bromophenyl)-1-(7-{[4-fluoro-2-(trifluoromethyl)phenyl]carbonyl}-2,7-diazaspiro[3.5]non-2-yl)prop-2-en-1-one], the half-maximal inhibitory concentration (IC50) is less than 0.1 µM.
For `O=C(C#Cc1ccc(Cl)cc1)N1CCC2(CC1)CN(Cc1ccc(C(F)(F)F)cc1)C2` [Compound C78, 3-(4-chlorophenyl)-1-(2-{[4-(trifluoromethyl)phenyl]methyl}-2,7-diazaspiro[3.5]non-7-yl)prop-2-yn-1-one] the value was less than 0.1 µM.
For `O=C(C#Cc1ccc(F)cc1)N1CCC2(CC1)CN(C(=O)c1ccc(C(F)(F)F)cc1)C2` [Compound C88, 3-(4-fluorophenyl)-1-(2-{[4-(trifluoromethyl)phenyl]carbonyl}-2,7-diazaspiro[3.5]non-7-yl)prop-2-yn-1-one] the value was less than 0.1 µM; for `O=C(c1ccc(B(O)O)cc1)N1CCC2(CC1)CN(C(=O)c1cc3cc(Cl)ccc3[nH]1)C2` [Compound C37, 4-(2-(5-chloro-1H-indole-2-carbonyl)-2,7-diazaspiro[3.5]nonane-7-carbonyl)phenylboronic acid], 0.1 to 0.5 µM.
In turn, `O=C(c1ccc(C(F)(F)F)c(F)c1)N1CC2(CCN(C(=O)c3cc4cc(Cl)ccc4[nH]3)CC2)C1` [Compound C13, 5-chloroindol-2-yl 2-{[3-fluoro-4-(trifluoromethyl)phenyl]carbonyl}-2,7-diazaspiro[3.5]non-7-yl ketone] displayed an IC50 of 0.1 to 0.5 µM.
In turn, `O=C(C#Cc1ccc(F)cc1)N1CCC2(CC1)CN(C(=O)c1ccc(Br)cc1)C2` [Compound C99, 1-{2-[(4-bromophenyl)carbonyl]-2,7-diazaspiro[3.5]non-7-yl}-3-(4-fluorophenyl)prop-2-yn-1-one] showed an IC50 of 0.1 to 0.5 µM.
For `O=C(/C=C/c1ccc(Br)cc1)N1CC2(CCN(C(=O)c3ccc(-c4nnn[nH]4)cc3)CC2)C1` [Compound C23, (2E)-3-(4-bromophenyl)-1-{7-[(4-(1H-1,2,3,4-tetraazol-5-yl)phenyl)carbonyl]-2,7-diazaspiro[3.5]non-2-yl}prop-2-en-1-one] the value was 0.1 to 0.5 µM; for `O=C(C#Cc1ccc(F)cc1)N1CC2(CCN(C(=O)c3ccc(F)cc3)CC2)C1` [Compound C93, 3-(4-fluorophenyl)-1-{7-[(4-fluorophenyl)carbonyl]-2,7-diazaspiro[3.5]non-2-yl}prop-2-yn-1-one], 0.5 to 5 µM; for `O=C(/C=C/c1ccc(Br)cc1)N1CC2(CCN(Cc3ccc(F)cc3)CC2)C1` [Compound C25, (2E)-3-(4-bromophenyl)-1-{7-[(4-fluorophenyl)methyl]-2,7-diazaspiro[3.5]non-2-yl}prop-2-en-1-one], 0.1 to 0.5 µM.
Under `O=C(/C=C/c1ccc(Cl)c(Cl)c1)N1CC2(CCN(C(=O)c3ccc(Cl)cc3)CC2)C1` [Compound C29, (2E)-3-(3,4-dichlorophenyl)-1-{7-[(4-chlorophenyl)carbonyl]-2,7-diazaspiro[3.5]non-2-yl}prop-2-en-1-one] stands less than 0.1 µM.

As usually defined, the IC50 is the point on the concentration scale where inhibition reaches its midpoint.
